In paper PMC7151078, “A Novel NMDA Receptor Antagonist Protects against Cognitive Decline Presented by Senescent Mice” (Pharmaceutics, 2020):

Assays:
SAMR1 and SAMP8 mice [1] = experiment: Hippocampal protein levels by Western blotting; format: in vivo, mouse; conditions: hippocampus
Experimental: Male SAMR1 and SAMP8 mice (n = 41) with 20-weeks-old were used to carry out cognitive and molecular analysis. The animals were randomly divided into four groups: SAMR1 control (SR1 Ct) group (n = 11), SAMP8 control (SP8 Ct) group (n = 8), SAMR1 treated with RL-208 (SR1 RL-208 (5 mg/Kg)) group (n = 10) and SAMP8 treated with RL-208 (SP8 RL-208 (5 mg/Kg)) group (n = 12). Animals had free access to food and water, under standard temperature conditions (22±2 °C) and 12h:12h light-dark cycles (300 lux/0 lux). RL-208, (3,4,8,9-tetramethyltetracyclo[4.4.0.0^3,9.0^4,8]dec-1-yl)-methylamine hydrochloride, (5 mg/kg/day) was administered through drinking water for four weeks before starting the cognitive test. RL-208 was administered up to euthanasia (Figure 1A). Water consumption was controlled each week for each cage and strain. Afterwards, RL-208 concentration was adjusted accordingly to reach the optimal dose for each cage. Three days after the behavioural and cognitive tests, mice were euthanized by cervical dislocation. Brains were immediately removed from the skull. The hippocampus and cortex were then isolated and frozen in powdered dry ice. They were maintained at −80 °C for further use. Tissue samples were homogenized in lysis buffer containing phosphatase and protease inhibitors (Cocktail II, Sigma). Total protein levels were obtained, and protein concentration was determined by the method of Bradford. For Western blotting (WB), aliquots of 15 μg of hippocampal protein extraction per sample were used. Protein samples were separated by Sodium dodecyl sulphate-Polyacrylamide gel electrophoresis (SDS-PAGE) (8–20%) and transferred onto Polyvinylidene difluoride (PVDF) membranes (Millipore). Afterwards, membranes were blocked in 5% non-fat milk in Tris-buffered saline (TBS) solution containing 0.1% Tween 20 TBS (TBS-T) for 1 hour at room temperature, followed by overnight incubation at a 4 °C with the primary antibodies listed in Table S1. Then, membranes were washed and incubated with secondary antibodies for 1 hour at room temperature. Immunoreactive proteins were viewed with the chemiluminescence-based detection kit, following the manufacturer’s protocol (ECL Kit, Millipore), and digital images were acquired using ChemiDoc XRS+ System (BioRad). Semi-quantitative analyses were performed using ImageLab software (BioRad), and results were expressed in arbitrary units (AU), considering control protein levels as 100%. Protein loading was routinely monitored by immunodetection of Glyceraldehyde-3-phosphate dehydrogenase (GAPDH).

SAMR1 and SAMP8 mice [2] = experiment: Hippocampal gene expression by real-time qPCR; format: in vivo, mouse; conditions: hippocampus
Experimental: Male SAMR1 and SAMP8 mice (n = 41) with 20-weeks-old were used to carry out cognitive and molecular analysis. The animals were randomly divided into four groups: SAMR1 control (SR1 Ct) group (n = 11), SAMP8 control (SP8 Ct) group (n = 8), SAMR1 treated with RL-208 (SR1 RL-208 (5 mg/Kg)) group (n = 10) and SAMP8 treated with RL-208 (SP8 RL-208 (5 mg/Kg)) group (n = 12). Animals had free access to food and water, under standard temperature conditions (22±2 °C) and 12h:12h light-dark cycles (300 lux/0 lux). RL-208, (3,4,8,9-tetramethyltetracyclo[4.4.0.0^3,9.0^4,8]dec-1-yl)-methylamine hydrochloride, (5 mg/kg/day) was administered through drinking water for four weeks before starting the cognitive test. RL-208 was administered up to euthanasia (Figure 1A). Water consumption was controlled each week for each cage and strain. Afterwards, RL-208 concentration was adjusted accordingly to reach the optimal dose for each cage. Total RNA isolation from hippocampal samples was carried out using TRIsure^TM reagent following the manufacturer’s instructions (Bioline, Meridian Bioscience Inc., UK). The yield, purity, and quality of RNA were determined spectrophotometrically with a NanoDrop^TM ND-1000 (Thermo Scientific, Wilmington, DE, USA) apparatus and an Agilent 2100B Bioanalyzer (Agilent Technologies, Palo Alto, CA, USA). RNAs with 260/280 ratios and RIN higher than 1.9 and 7.5, respectively, were selected. Reverse transcription-polymerase chain reaction (RT-PCR) was performed as follows: 2 μg of messenger RNA (mRNA) was reverse-transcribed using the High Capacity cDNA Reverse Transcription kit (Applied Biosystems, Foster City, CA, USA). Real-time quantitative PCR (qPCR) was used to quantify the mRNA expression of OS and synaptic plasticity genes listed in Table S2. SYBR® Green real-time PCR was performed on a Step One Plus Detection System (Applied-Biosystems, Foster City, CA, USA) employing SYBR® Green PCR Master Mix (Applied-Biosystems, Foster City, CA, USA). Each reaction mixture contained 6.75 μL of complementary DNA (cDNA) (which concentration was 2 μg), 0.75 μL of each primer (which concentration was 100 nM), and 6.75 μL of SYBR® Green PCR Master Mix (2X). Data were analyzed utilizing the comparative cycle threshold (Ct) method (ΔΔCt), where the housekeeping gene level was used to normalize differences in sample loading and preparation. Normalization of expression levels was performed with β-actin for SYBR® Green-based real-time PCR results. Each sample was analyzed in duplicate, and the results represent the n-fold difference of the transcript levels among different groups.

SMILES: CC12CC3CC1(C)C1(C)CC3(CN)CC21C.Cl [RL-208, (3,4,8,9-tetramethyltetracyclo [4.4.0.0^3,9.0^4,8]dec-1-yl)methylamine hydrochloride]
- PSD95 protein levels (SAMR1 and SAMP8 mice [1]; RL-208 treated mice): augmented but did not reach significance in SP8 mice
- Synaptophysin (SYN) protein levels (SAMR1 and SAMP8 mice [1]; RL-208 treated mice): significant increase
- ADAM10 protein levels (SAMR1 and SAMP8 mice [1]; SAMP8): prevented the loss
- SNAP25 protein levels (SAMR1 and SAMP8 mice [1]; SP8 RL-208): significant-high
- CDK5 activation (p-CDK5/CDK5 ratio) (SAMR1 and SAMP8 mice [1]; SP8 RL-208 vs control group): significantly reduced
- p25/p35 ratio (SAMR1 and SAMP8 mice [1]; SP8 RL-208 vs control group): significantly reduced
- GPX1 protein levels (SAMR1 and SAMP8 mice [1]; SP8 mice, not in SR1): increased, in a significant way
- SOD1 protein levels (SAMR1 and SAMP8 mice [1]; SP8 mice, not in SR1): increased, in a significant way
- 120BPD (Spectrin breakdown product) (SAMR1 and SAMP8 mice [1]; SP8 strain, not in SR1): reduced
- Calpain-1 protein levels (SAMR1 and SAMP8 mice [1]; SP8 strain, not in SR1): reduced
- Caspase-3 protein levels (SAMR1 and SAMP8 mice [1]; SP8 strain, not in SR1): reduced
- TrkB-FL protein levels (SAMR1 and SAMP8 mice [1]; both SR1 and SP8): increased significantly
- p-NMDAR (Tyr1472) protein levels (SAMR1 and SAMP8 mice [1]; both strains): increased in a significant way
- Tau phosphorylation (Ser396) (SAMR1 and SAMP8 mice [1]; both treated mice groups): significant reduction
- NMDAR2A protein levels (SAMR1 and SAMP8 mice [1]; neither in SR1 nor in SP8): did not produce significant differences
- TrkB-ICD protein levels (SAMR1 and SAMP8 mice [1]; treated mice): reduced
- Tgf gene expression (SAMR1 and SAMP8 mice [2]; RL-208 treated mice groups vs control groups): significant gain
- Vgf gene expression (SAMR1 and SAMP8 mice [2]; SP8 RL-208 vs SP8 Ct): significant increase
- Vgf gene expression (SAMR1 and SAMP8 mice [2]; between SR1 mice groups): no changes
- Cox2 gene expression (SAMR1 and SAMP8 mice [2]; treated groups vs controls, significant in the SP8 strain): decreased
- Hmox1 gene expression (SAMR1 and SAMP8 mice [2]; treated mice): elevated
